In patent US8034839B2, “Method of treating ocular allergy” (Alcon Research, Ltd., priority 2005, dated 2011):
Marks after values point to notes of the source that are not given here.

Legend:
[1] = tested on: neutrophils; settings: disclosed by Lee et al., Biochem. Biophys. Res. Commun. 1991; cited from earlier work
[2] = tested on: conjunctival EPO activity; assay: Mouse late-phase allergy model (OVA-induced allergic conjunctivitis), conjunctival EPO activity assay; format: in vivo, mouse (female BALB/c); settings: for EPO Activity (ng/ml/mg tissue) ± S.D.: single 5 μl topical drop O.D. BID, conjunctival EPO activity at 24 hrs post-challenge, mean ± S.D.
Protocol: Active Sensitization and Induction of Allergic Conjunctivitis (AC)
Female BALB/c mice, 6 to 9 months old (Charles River Labs), were given a single intraperitoneal injection of 100 μg chicken ovalbumin (OVA; Sigma) which had been absorbed to 5 mg of alum (Pierce Chemical) as an adjuvant or 5 mg alum only (unsensitized group). On day 14 after sensitization, all mice were challenged with a single topical drop O.D. of 1 mg OVA dissolved in 5 μl PBS.
Drugs or vehicles were administered to mice as a single 5 μl drop O.D. at 60 min before challenge and again at 16 hrs after challenge (BID dosing). Mice were euthanized at 24 hrs after challenge.
Mice were euthanized at 24 hrs after topical challenge and upper and lower eyelids containing palpebral conjunctiva were excised and immediately frozen on dry ice. Samples were weighed frozen and then thawed and homogenized on ice in 2 ml of 50 mM HEPES buffer, pH 6.5. Samples were pelleted at 4000 rpm for 20 min at 4° C. and supernatants were discarded. To each pellet, 1 ml of 0.5% cetyltrimethylammonium chloride (CTAC) was added and samples were vortexed vigorously. Samples were then subjected to three freeze-thaw cycles between −80° C. and 37° C. After final thaw, samples were sonicated on ice for 15-30 sec and pelleted at 4000 rpm for 20 min at 4° C. EPO activity assay was performed on supernatants.
For the EPO activity assay, 75 μl of each sample were added in triplicate to wells of a 96-well clear flat-bottomed microplate. 75 μl of EPO substrate solution [6 mM o-phenylenediamine (OPD), 8.8 mM H2O2, and 6 mM KBr in 50 mM HEPES, pH 6.5] were then added to each well using a multichannel pipetter. The reaction was allowed to run for 3 min and was stopped by addition of 150 μl of 4M H2SO4. Optical density at 490 nm (OD490) was read on a Bio-Tek Synergy. HT plate reader. […] 75 μl triplicates of each standard were used on each run of the assay. Linear regression was determined for the resulting plot of [EPO] vs OD490. Final [EPO] in each sample was determined by solving for x in the equation y=m*x+b, where y=OD490, m=[…].
Groups of means were compared using Student's unpaired t-test or Dunnett's t-test where appropriate. […] Data are expressed as mean±standard deviation.

Compound	inhibition of LTB4-induced chemotaxis of neutrophils [1]	EPO Activity (ng/ml/mg tissue) ± S.D. ([2]; dose 0.1%)	inhibition of conjunctival EPO activity (in words) ([2]; all three doses (0.001%, 0.01%, and 0.1% solutions), 24 hrs post-challenge, efficacy comparable to 0.1% dexamethasone)	EPO Activity (ng/ml/mg tissue) ± S.D. ([2]; dose 0.001%)	EPO Activity (ng/ml/mg tissue) ± S.D. ([2]; dose 0.01%)
CCCCC[C@H](O)/C=C/C=C\C=C\C=C\[C@@H](O)[C@@H](O)CCCC(=O)O [lipoxin A4, Lipoxin A4, reference compound]	inhibit				
C[C@@H]1C[C@H]2[C@@H]3CCC4=CC(=O)C=C[C@]4(C)[C@@]3(F)[C@@H](O)C[C@]2(C)[C@@]1(O)C(=O)CO [dexamethasone, reference compound]		4.0 ± 0.5^c ng/ml/mg tissue			
COC(=O)CCC[C@H](O)[C@H](O)CO [compound 1]	as potently as lipoxin A4	3.2 ± 1.0^c,d ng/ml/mg tissue	significantly inhibited	5.2 ± 2.5^c,d ng/ml/mg tissue	4.8 ± 1.2^c,d ng/ml/mg tissue
CCCCC[C@H](O)[C@H](O)CO [compound 2]	as potently as lipoxin A4				
